In BindingDB's records for doi:10.7270/Q21N7ZQ4 (Johns Hopkins Ion Channel Center, 2012):

Molecular target: T1, High affinity choline transporter 1 (Homo sapiens, UniProt Q9GZV3)
T1 sequence (Q9GZV3 whole entry): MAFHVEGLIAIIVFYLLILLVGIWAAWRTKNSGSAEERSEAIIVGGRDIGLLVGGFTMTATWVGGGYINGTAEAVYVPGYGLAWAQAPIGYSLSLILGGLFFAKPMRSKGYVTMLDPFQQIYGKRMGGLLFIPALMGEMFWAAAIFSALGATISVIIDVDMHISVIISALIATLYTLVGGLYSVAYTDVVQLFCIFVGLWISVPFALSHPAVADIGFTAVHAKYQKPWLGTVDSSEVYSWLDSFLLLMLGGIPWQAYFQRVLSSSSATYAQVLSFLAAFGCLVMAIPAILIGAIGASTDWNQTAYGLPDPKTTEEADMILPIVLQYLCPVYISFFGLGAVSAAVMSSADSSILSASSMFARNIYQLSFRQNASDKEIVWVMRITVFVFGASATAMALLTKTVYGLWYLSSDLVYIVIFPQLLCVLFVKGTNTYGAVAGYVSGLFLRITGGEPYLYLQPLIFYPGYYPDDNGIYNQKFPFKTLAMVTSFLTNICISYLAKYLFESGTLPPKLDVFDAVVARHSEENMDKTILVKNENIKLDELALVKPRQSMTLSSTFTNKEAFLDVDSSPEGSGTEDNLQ
Test: human choline transporter potentiators, potency – cell-based, 10-point CRC, membrane potential dye, dose response (AID 602376)

SMILES	EC50 [µM]
CCOC(=O)c1ccc(-[n+]2c(-c3ccccc3)cc(-c3ccccc3)cc2-c2ccccc2)cc1 [MLS001242871]	14.1
COc1cc(C2c3ccc(N)cc3OC(=N)C2C#N)cc(OC)c1OC (configuration not stated) [2,7-bis(azanyl)-4-(3,4,5-trimethoxyphenyl)-4H-chromene-3-carbonitrile]	13.5
